Where “and” joins values, the source holds several entries; their conditions need not be identical. Equal entries are not always repeated. Toxic doses and inconclusive results are not listed. The calls were made as follows: active = survival T/C of 150% or more; inactive = T/C below 125% in these data.
Tested on: BDF1 mice, P388 leukemia ip, median survival T/C
Assay: NCI In Vivo Anticancer Drug Screen. Data for tumor model P388 Leukemia (intraperitoneal) in B6D2F1 (BDF1) mice
Conditions: endpoint: median survival time, higher = longer survival
Procedure: The antitumor activity of compounds was measured in mice bearing transplantable tumors. Survival or tumor size were measured and the results are expressed as the measurement made in the treated group (T) divided by the measurement made in the vehicle treated control group (C). The tumor model used in this assay is P388 Leukemia (intraperitoneal) in B6D2F1 (BDF1) mice

[1] = dose: 100.0 mg/kg/injection, schedule: Q01DX009 (ip), vehicle: saline with Tween-80
[2] = dose: 50.0 mg/kg/injection, schedule: Q01DX009 (ip), vehicle: saline with Tween-80
[3] = dose: 100.0 mg/kg/injection, schedule: Q04DX003 (ip), vehicle: saline with Tween-80
[4] = dose: 200.0 mg/kg/injection, schedule: Q04DX003 (ip), vehicle: saline with Tween-80
[5] = dose: 100.0 mg/kg/injection, schedule: Q01DX009 (ip), vehicle: Klucel (hydroxypropylcellulose) (HPC)
[6] = dose: 200.0 mg/kg/injection, schedule: Q01DX009 (ip), vehicle: Klucel (hydroxypropylcellulose) (HPC)
[7] = dose: 100.0 mg/kg/injection, schedule: Q01DX001 (ip), vehicle: saline
[8] = dose: 200.0 mg/kg/injection, schedule: Q01DX009 (ip), vehicle: saline with Tween-80

Measured: T/C

CCS(=O)(=O)OCCCCOS(=O)(=O)CC
inactive: [1] 108 % of control

O=C(/C=N/O)Nc1cc(Cl)c(Cl)cc1Cl
inactive: [2] 109 % of control | dose: 50.0 mg/kg/injection, schedule: Q04DX003 (ip), vehicle: saline with Tween-80 109 % of control | dose: 75.0 mg/kg/injection, schedule: Q01DX009 (ip), vehicle: saline with Tween-80 113 % of control | [1] 104 % of control | [3] 100 % of control | dose: 150.0 mg/kg/injection, schedule: Q01DX009 (ip), vehicle: saline with Tween-80 118 % of control | [4] 122 % of control

CC(=O)OCCCc1ccccc1
inactive: [5] 109 % of control | dose: 100.0 mg/kg/injection, schedule: Q04DX003 (ip), vehicle: Klucel (hydroxypropylcellulose) (HPC) 110 % of control | [6] 104 % of control | dose: 200.0 mg/kg/injection, schedule: Q04DX003 (ip), vehicle: Klucel (hydroxypropylcellulose) (HPC) 100 % of control | dose: 400.0 mg/kg/injection, schedule: Q01DX009 (ip), vehicle: Klucel (hydroxypropylcellulose) (HPC) 95 % of control | dose: 400.0 mg/kg/injection, schedule: Q04DX003 (ip), vehicle: Klucel (hydroxypropylcellulose) (HPC) 110 % of control

NC(=O)NN=C(CS)CS
inactive: dose: 6.25 mg/kg/injection, schedule: Q01DX009 (ip), vehicle: gum acacia 101 % of control | dose: 12.5 mg/kg/injection, schedule: Q01DX009 (ip), vehicle: gum acacia 100 % of control | dose: 25.0 mg/kg/injection, schedule: Q01DX009 (ip), vehicle: gum acacia 102 % of control | dose: 50.0 mg/kg/injection, schedule: Q01DX009 (ip), vehicle: gum acacia 100 % of control

CC(Cc1ccc2c(c1)OCO2)C(C)Cc1ccc2c(c1)OCO2 (stereo unspecified)
inactive: dose: 100.0 mg/kg/injection, schedule: Q01DX001 (ip), vehicle: Klucel (hydroxypropylcellulose) (HPC) 100 % of control | dose: 200.0 mg/kg/injection, schedule: Q01DX001 (ip), vehicle: Klucel (hydroxypropylcellulose) (HPC) 100 % of control | dose: 400.0 mg/kg/injection, schedule: Q01DX001 (ip), vehicle: Klucel (hydroxypropylcellulose) (HPC) 100 % of control

O=C(CI)Nc1ccc(Br)cc1
inactive: dose: 8.75 mg/kg/injection, schedule: Q01DX009 (ip), vehicle: Klucel (hydroxypropylcellulose) (HPC) 104 % of control | dose: 17.5 mg/kg/injection, schedule: Q01DX009 (ip), vehicle: Klucel (hydroxypropylcellulose) (HPC) 104 % of control | dose: 26.25 mg/kg/injection, schedule: Q04DX003 (ip), vehicle: Klucel (hydroxypropylcellulose) (HPC) 90 % of control | dose: 35.0 mg/kg/injection, schedule: Q01DX009 (ip), vehicle: Klucel (hydroxypropylcellulose) (HPC) 104 % of control

CC(=O)C[P+](c1ccccc1)(c1ccccc1)c1ccccc1
inactive: [7] 109 % of control

CCNS(=O)(=O)c1ncnc2nc[nH]c12
inactive: [1] 100 % of control | [3] 104 % of control | [8] 100 % of control | [4] 100 % of control | dose: 400.0 mg/kg/injection, schedule: Q01DX009 (ip), vehicle: saline with Tween-80 100 % of control | dose: 400.0 mg/kg/injection, schedule: Q04DX003 (ip), vehicle: saline with Tween-80 100 % of control

C(=C\C1CC2CCCN2O1)/c1ccccc1 (stereo unspecified)
inactive: dose: 25.0 mg/kg/injection, schedule: Q01DX009 (ip), vehicle: saline with Tween-80 100 % of control | [2] 102 % of control and 105 % of control | [1] 100 % of control | [8] 98 % of control and 102 % of control

CC1(C)CC(C)(OC(=O)c2ccccc2)[N+]([O-])=N1 (stereo unspecified)
inactive: dose: 25.0 mg/kg/injection, schedule: Q01DX005 (ip), vehicle: other 108 % of control | dose: 50.0 mg/kg/injection, schedule: Q01DX005 (ip), vehicle: other 117 % of control | dose: 100.0 mg/kg/injection, schedule: Q01DX005 (ip), vehicle: other 99 % of control | dose: 200.0 mg/kg/injection, schedule: Q01DX005 (ip), vehicle: other 101 % of control | dose: 400.0 mg/kg/injection, schedule: Q01DX005 (ip), vehicle: other 108 % of control

CCOC(=O)c1ccc(NC(C)=O)c(CSC)c1
inactive: dose: 50.0 mg/kg/injection, schedule: Q04DX002 (ip), vehicle: saline with Tween-80 107 % of control | dose: 100.0 mg/kg/injection, schedule: Q04DX002 (ip), vehicle: saline with Tween-80 98 % of control | dose: 200.0 mg/kg/injection, schedule: Q04DX002 (ip), vehicle: saline with Tween-80 99 % of control

Oc1ccc(Nc2ccccc2)cc1
inactive: [7] 95 % of control | dose: 200.0 mg/kg/injection, schedule: Q01DX001 (ip), vehicle: saline 100 % of control | dose: 400.0 mg/kg/injection, schedule: Q01DX001 (ip), vehicle: saline 100 % of control

COC(=O)[C@]1(C)CCC[C@]2(C)c3ccc(C(C)C)cc3CC[C@@H]12
inactive: dose: 0.5 mg/kg/injection, schedule: Q01DX009 (ip), vehicle: Klucel (hydroxypropylcellulose) (HPC) 100 % of control | dose: 0.5 mg/kg/injection, schedule: Q04DX003 (ip), vehicle: Klucel (hydroxypropylcellulose) (HPC) 100 % of control | dose: 1.0 mg/kg/injection, schedule: Q01DX009 (ip), vehicle: Klucel (hydroxypropylcellulose) (HPC) 103 % of control | dose: 1.0 mg/kg/injection, schedule: Q04DX003 (ip), vehicle: Klucel (hydroxypropylcellulose) (HPC) 100 % of control | dose: 2.0 mg/kg/injection, schedule: Q01DX009 (ip), vehicle: Klucel (hydroxypropylcellulose) (HPC) 92 % of control | dose: 2.0 mg/kg/injection, schedule: Q04DX003 (ip), vehicle: Klucel (hydroxypropylcellulose) (HPC) 104 % of control

CC1CCC2(C)CCC3(C)C(=CCC4C5(C)CCC(O)C(C)(C)C5CCC43C)C2C1C (stereo unspecified)
inactive: dose: 100.0 mg/kg/injection, schedule: Q01DX009 (ip), vehicle: water 90 % of control | dose: 100.0 mg/kg/injection, schedule: Q04DX003 (ip), vehicle: water 90 % of control | dose: 200.0 mg/kg/injection, schedule: Q04DX003 (ip), vehicle: water 90 % of control | dose: 400.0 mg/kg/injection, schedule: Q01DX009 (ip), vehicle: water 90 % of control | dose: 400.0 mg/kg/injection, schedule: Q04DX003 (ip), vehicle: water 90 % of control

CC1(C)CCC23CCC4(C)C(CCC5C6(C)CCC(O)C(C)(C)C6CCC54C)C2C1OC3=O (stereo unspecified)
inactive: dose: 10.0 mg/kg/injection, schedule: Q01DX009 (ip), vehicle: Klucel (hydroxypropylcellulose) (HPC) 105 % of control | dose: 20.0 mg/kg/injection, schedule: Q01DX009 (ip), vehicle: Klucel (hydroxypropylcellulose) (HPC) 119 % of control | dose: 40.0 mg/kg/injection, schedule: Q01DX009 (ip), vehicle: Klucel (hydroxypropylcellulose) (HPC) 105 % of control

COc1ccc(N=C(c2ccccc2)c2ccc([N+](=O)[O-])cc2)cc1
inactive: dose: 12.0 mg/kg/injection, schedule: Q01DX009 (ip), vehicle: Klucel (hydroxypropylcellulose) (HPC) 100 % of control | dose: 25.0 mg/kg/injection, schedule: Q01DX009 (ip), vehicle: Klucel (hydroxypropylcellulose) (HPC) 109 % of control | dose: 50.0 mg/kg/injection, schedule: Q01DX009 (ip), vehicle: Klucel (hydroxypropylcellulose) (HPC) 100 % of control and 122 % of control | [5] 86 % of control | [6] 90 % of control

O=C(O)CC[n+]1c(/C=C/c2cc(Br)c(O)c(Br)c2)sc2ccccc21
inactive: dose: 50.0 mg/kg/injection, schedule: Q04DX003 (ip), vehicle: saline sonified 100 % of control | dose: 100.0 mg/kg/injection, schedule: Q04DX003 (ip), vehicle: saline sonified 100 % of control | dose: 200.0 mg/kg/injection, schedule: Q04DX003 (ip), vehicle: saline sonified 100 % of control

CC1([CH2][Hg][I])CS(=O)(=O)CC(C)([CH2][Hg][I])O1 (stereo unspecified)
inactive: dose: 5.0 mg/kg/injection, schedule: Q01DX010 (ip), vehicle: carboxymethylcellulose (CMC) 104 % of control | dose: 10.0 mg/kg/injection, schedule: Q01DX010 (ip), vehicle: carboxymethylcellulose (CMC) 109 % of control
